EP0416609A2, “Benzo[b]thiophene-containing lipoxygenase-inhibiting compounds” (ABBOTT LABORATORIES, priority 1989, dated 1991)
pIC50: −log10 of the molar value.

These molecules were tested against T1, 5-lipoxygenase (Rattus norvegicus, UniProt P12527) (assay: Lipoxygenase IC50 determination (20,000xg supernatant from homogenized RBL-1 cells, radiolabelled arachidonic acid)). Conditions: 20,000xg supernatant from 6x10⁴ homogenized RBL-1 cells, 2% DMSO vehicle, triplicate incubations; read-out: IC₅₀.
T1 construct: containing the 20,000xg supernatant from 6x10⁴ homogenized RBL-1 cells; endogenous in cells; host or cells: RBL-1 cells (20,000xg supernatant of homogenate)
T1 sequence (P12527 1-673): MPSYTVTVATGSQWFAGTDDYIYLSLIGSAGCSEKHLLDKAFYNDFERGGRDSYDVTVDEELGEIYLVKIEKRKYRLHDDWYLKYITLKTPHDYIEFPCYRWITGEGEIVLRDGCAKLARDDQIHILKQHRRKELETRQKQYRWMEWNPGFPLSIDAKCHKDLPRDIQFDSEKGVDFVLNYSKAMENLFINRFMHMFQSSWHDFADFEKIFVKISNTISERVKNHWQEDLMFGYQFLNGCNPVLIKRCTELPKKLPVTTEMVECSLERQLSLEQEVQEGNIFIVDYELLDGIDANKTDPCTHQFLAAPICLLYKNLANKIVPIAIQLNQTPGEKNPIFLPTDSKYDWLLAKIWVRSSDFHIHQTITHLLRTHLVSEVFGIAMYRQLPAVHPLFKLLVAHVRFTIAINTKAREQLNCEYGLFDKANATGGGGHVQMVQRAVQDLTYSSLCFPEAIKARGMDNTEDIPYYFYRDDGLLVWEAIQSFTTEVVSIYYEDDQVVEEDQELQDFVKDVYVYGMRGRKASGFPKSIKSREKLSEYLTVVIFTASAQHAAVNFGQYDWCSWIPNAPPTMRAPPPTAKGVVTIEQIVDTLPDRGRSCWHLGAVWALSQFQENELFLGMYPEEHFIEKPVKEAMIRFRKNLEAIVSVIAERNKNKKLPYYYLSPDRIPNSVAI
Assay type: biochemical
Method: Lipoxygenase IC₅₀ Determination
Reactions were initiated by addition of radiolabelled arachidonic acid and terminated by acidification and ether extraction. Reaction products were separated from nonconverted substrate by thin layer chromatography and measured by liquid scintillation spectroscopy. All treatments were evaluated in triplicate incubations. […] ICso values and 95% confidence limits were computed by linear regression analysis of percentage inhibition versus log inhibitor concentration plots.

Structure (SMILES)	pIC50
CC(=O)N(O)C(C)c1cc2ccccc2s1 (stereo not shown) [Example 1, N-hydroxy-N-(1-benzol[b]thien-2-ylethyl)acetamide]	5.96
CC(=O)ON(C(N)=O)C(C)c1cc2ccccc2s1 (stereo not shown) [Example 3, N-acetoxy-N-[1-(benzol[b]thien-2-yl)ethyl]urea]	5.68
CCOC(=O)ON(C(N)=O)C(C)c1cc2ccccc2s1 (stereo not shown) [Example 4, N-ethoxycarbonyloxvyN-[1-(benzo[b]thien-2-yl)ethyl]urea]	5.82
COC(=O)ON(C(N)=O)C(C)c1cc2ccccc2s1 (stereo not shown) [Example 5, N-methoxycarbonyloxy-N-[1-(benzol[b]thien-2-yl)ethyl]urea]	5.92
CC(c1cc2ccccc2s1)N(OC(=O)CCC(=O)O)C(N)=O (stereo not shown) [Example 9, N-succinyloxy-N-[1-(benzo[b]thien-2-yl)ethyl]urea]	6.22
CC(=O)NC(=O)N(O)C(C)c1cc2ccccc2s1 (stereo not shown) [Example 10, N′-acetyl-N-hydroxy-N-[1-(benzo[b]thien-2-yl)ethyl]urea;]	5.82
CC(c1cc2ccccc2s1)N(O)C(=O)NC(N)=O (stereo not shown) [Example 11]	6.00
